From patent US9839215B2, “Methods for increasing oil palm yield” (Valent BioSciences Corporation, priority 2015, dated 2017)

Tests used:
oil palms = assay: Oil yield of oil palms after application before harvest of the fruit; type: in vivo, oil palm; settings: applied before harvest of the fruit
oil palm fruit = settings: preharvest application to attached bunches of oil palm fruit; cited from earlier work
oil palm = assay: Field study of cumulative loose fruit (CLF) and cumulative loose mass (CLM) after one-time bunch-directed spray; type: in vivo, oil palm (Compact×Ghana plants); settings: one spray 100 mL/bunch; for Cumulative Loose Mass / % Difference with UTC (Cumulative Loose Fruit) / % Difference with UTC (Cumulative Loose Mass): 14 days; for % Difference with UTC (Cumulative Loose Fruit) / % Difference with UTC (Cumulative Loose Mass): positive = reduction; for Cumulative Loose Fruit: counted for 14 days
Source text: Plant Material: A field study was executed in a plantation in Costa Rica to compare the effects of one-time bunch-directed applications of: (1) water sprayed untreated control (UTC); (2) AVG-HCl at 500 ppm (59.5 g) active ingredient (a.i.); (3) AVG-HCl at 125 ppm (14.9 g) a.i.; (4) 200 ppm (0.2 g) a.i. of NAA; (5) AVG-HCl at 500 ppm (59.5 g) a.i. and 200 ppm (0.2 g) a.i. of NAA; and (6) AVG-HCl at 125 ppm (14.9 g) a.i. and 200 ppm (0.2 g) a.i. of NAA. In this study, AVG was provided in a formulation as AVG-HCl. NAA was provided as the sodium salt at concentrations of 20% and 3.5%. For each treatment, 24 palms per treatment were randomly selected covering about 15 hectares. The palms were Compact×Ghana plants and 2.5 to 3 years old. Treatment Application: A manual DEA-2000 sprayer was used to spray all treatments (100 mL/bunch) to bunches with 1 to 3 loose fruits. The time required to spray each bunch was about 11 to 20 seconds depending on the sprayer. Sprays were conducted only once per bunch. Twelve bunches were sprayed on Oct. 28, 2014 and the other 12 on Nov. 4, 2014. Cumulative loose fruit (CLF) and cumulative loose mass (CLM) counts were determined at daily basis with exception of Sundays for 14 days in order to objectively quantify fruit abscission. An electronic balance was used to weight out all fruit. All loose fruit on the bunch, branches and on the ground was counted and weighed.

Q: For `C=C1C[C@]23C[C@@]1(O)CC[C@H]2[C@@]12C=C[C@H](O)[C@@](C)(C(=O)O1)[C@H]2[C@@H]3C(=O)O` [gibberellic acid], which “oil yield of oil palms” value (oil palms) is on record?
A: inconsistent and unsatisfactory oil yields

Q: With `O=P(O)(O)CCCl` [ethephon, 2-chloroethyl phosphonic acid] as the molecule, how does the “increase of oil content” value (oil palm fruit) read?
A: 7%

Q: For `O=C(O)Cc1cccc2ccccc12` [NAA, 1-naphthaleneacetic acid], which “oil yield of oil palms” value (oil palms) is on record?
A: increases the oil yield

Q: And the “Cumulative Loose Mass” value (oil palm; NAA 200 ppm (0.2 g) a.i.)?
A: 1501 g

Q: And the “% Difference with UTC (Cumulative Loose Fruit)” value (oil palm; NAA 200 ppm (0.2 g) a.i.)?
A: 31.3%

Q: What about the “% Difference with UTC (Cumulative Loose Mass)” value (oil palm; NAA 200 ppm (0.2 g) a.i.) of the same molecule?
A: 22%

Q: And the “Cumulative Loose Fruit” value (oil palm; NAA 200 ppm (0.2 g) a.i.)?
A: 114.8

Q: Which “Cumulative Loose Mass” value (oil palm; AVG-HCl 125 ppm (14.9 g) a.i.) does the source give for `NCCO/C=C/[C@H](N)C(=O)O` (stereo in doubt) [AVG, [S]-trans-2-amino-4-(2-aminoethoxy)-3-butenoic acid] here?
A: 2028 g

Q: And the “% Difference with UTC (Cumulative Loose Fruit)” value (oil palm; AVG-HCl 125 ppm (14.9 g) a.i.)?
A: 3.9%

Q: And the “% Difference with UTC (Cumulative Loose Mass)” value (oil palm; AVG-HCl 125 ppm (14.9 g) a.i.)?
A: −5.4%

Q: What about the “Cumulative Loose Fruit” value (oil palm; AVG-HCl 125 ppm (14.9 g) a.i.) of the same molecule?
A: 160.7

Q: And the “Cumulative Loose Mass” value (oil palm; AVG-HCl 500 ppm (59.5 g) a.i.)?
A: 1154 g

Q: What about the “% Difference with UTC (Cumulative Loose Fruit)” value (oil palm; AVG-HCl 500 ppm (59.5 g) a.i.) of the same molecule?
A: 48.5%

Q: What about the “% Difference with UTC (Cumulative Loose Mass)” value (oil palm; AVG-HCl 500 ppm (59.5 g) a.i.) of the same molecule?
A: 40%

Q: And the “Cumulative Loose Fruit” value (oil palm; AVG-HCl 500 ppm (59.5 g) a.i.)?
A: 86.1
